Experimental data as given in patent US20240116946A1 (Gilead Sciences, Inc., priority 2022, published 2024).
Where two headings read alike, the source gives them in different places.

Columns and labels:
[1] = target: recombinant SARS-CoV-2 Main protease (Mpro) (Severe acute respiratory syndrome coronavirus 2 (2019-nCoV) (SARS-CoV-2), UniProt P0DTD1); experiment: Cov Mpro Biochemical IC50 Assay; conditions: read-out: MPro IC50
SARS-CoV-2-NLuc = experiment: microbe, parasite or virus in culture; assay type: cell-based, SARS Coronavirus 2
[2] = recombinant SARS-CoV-2 Mpro 7.5 nM, fluorogenic peptide substrate 40 μM
[3] = Severe acute respiratory syndrome coronavirus, 48 h, read-out: MPro EC50
[4] = Severe acute respiratory syndrome coronavirus, 48 h; read-out: MPro EC50
[5] = recombinant SARS-CoV-2 Mpro, fluorogenic peptide substrate

Row | Structure (SMILES) | IC50 [1, 2] [nM] | EC50 (SARS-CoV-2-NLuc; read-out: MPro EC50) [nM] | EC50 (SARS-CoV-2-NLuc; [3]) [nM] | EC50 (SARS-CoV-2-NLuc; [4]) [nM] | IC50 [1, 5] [nM]
1 | COc1cc(-c2cc3c(s2)c(=O)n(-c2cncc4ccccc24)c(=O)n3CCC#N)c(Cl)cc1F (single isomer, unassigned) [Example 637, 3-[6-(2-chloro-4-fluoro-5-methoxy-phenyl)-3-(4-isoquinolyl)-2,4-dioxo-thieno[3,2-d]pyrimidin-1-yl]propanenitrile] | 3.48 | 1.85 | – | – | –
2 | COCCn1c(=O)n(-c2cncc3ccccc23)c(=O)c2sc(-c3ccccc3Cl)cc21 [Example 470, 6-(2-chlorophenyl)-3-(4-isoquinolyl)-1-(2-methoxyethyl)thieno[3,2-d]pyrimidine-2,4-dione] | 46.8 | – | 71.3 | – | –
3 | COc1cc(-c2cc3c(s2)c(=O)n(-c2cncc4cnn(C)c24)c(=O)n3CCC#N)c(Cl)cc1F [Example 642, 3-[6-(2-chloro-4-fluoro-5-methoxy-phenyl)-3-(1-methylpyrazolo[4,3-c]pyridin-7-yl)-2,4-dioxo-thieno[3,2-d]pyrimidin-1-yl]propanenitrile] | 8.54 | – | – | 4.59 | –
4 | COc1ccc(Cl)c(-c2cc3[nH]c(=O)n(-c4cncc5ccc(C(F)F)cc45)c(=O)c3s2)c1 [Example 227] | – | – | 25 | – | 11.3
5 | O=c1[nH]c2cc(-c3ccccc3Cl)ccc2c(=O)n1-c1cnccc1N1CCNCC1 [Example 116, 7-(2-chlorophenyl)-3-(4-(piperazin-1-yl)pyridin-3-yl)quinazoline-2,4(1H,3H)-dione] | – | – | – | 3200 | 797
6 | COc1cnc(C#N)c(-c2cc3c(s2)c(=O)n(-c2cncc4ccccc24)c(=O)n3CCC#N)c1 (single isomer, unassigned) [Example 1092, 3-(1-(2-cyanoethyl)-3-(isoquinolin-4-yl)-2,4-dioxo-1,2,3,4-tetrahydrothieno[3,2-d]pyrimidin-6-yl)-5-methoxypicolinonitrile] | 5.1 | 11.2 | – | – | –
7 | O=C1NCc2c1cccc2-c1cccc(Cl)c1-c1ccc2c(=O)n(-c3cncc4ccccc34)c(=O)[nH]c2c1 [Example 193] | – | – | 65.6 | – | 7.69
8 | COc1ccc(Cl)c(-c2cc3[nH]c(=O)n(-c4cncc5cnccc45)c(=O)c3s2)c1 [Example 582] | 8.83 | – | 31.7 | – | –
9 | COc1cc(-c2cc3[nH]c(=O)n(-c4cncc5nnn(C)c45)c(=O)c3s2)c(Cl)cc1F [Example 749] | 7.35 | – | 32.6 | – | –
10 | CN1C(=O)CCc2cc(-c3cccc(Cl)c3-c3ccc4c(=O)n(-c5cncc6ccccc56)c(=O)[nH]c4c3)ccc21 [Example 307] | – | – | 10.4 | – | 16.9
11 | COc1cc(Cl)c(-c2cc3c(s2)c(=O)n(-c2cncc4cnn(C)c24)c(=O)n3CCC#N)cc1F [Example 792] | 8.29 | – | 12.3 | – | –
12 | N#Cc1ccc(OC(F)F)cc1-c1ccc2c(=O)n(-c3cncc4ccccc34)c(=O)[nH]c2c1 [Example 326] | – | – | 106 | – | 42.5
13 | COc1c(C)cncc1-n1c(=O)[nH]c2cc(-c3ccccc3Cl)sc2c1=O [Example 213] | – | – | – | 31.1 | 16.4
14 | Cn1ncc2cncc(-n3c(=O)c4sc(-c5ccc(F)cc5Cl)cc4n(CCC#N)c3=O)c21 (single isomer, unassigned) [Example 955, 3-(6-(2-chloro-4-fluorophenyl)-3-(1-methyl-1H-pyrazolo[4,3-c]pyridin-7-yl)-2,4-dioxo-3,4-dihydrothieno[3,2-d]pyrimidin-1(2H)-yl)propanenitrile] | 6.81 | 9.67 | – | – | –
15 | COc1cc(-c2cc3[nH]c(=O)n(-c4cncc5ccc(C)nc45)c(=O)c3s2)c(Cl)cc1F (single isomer, unassigned) [Example 1035, 6-(2-chloro-4-fluoro-5-methoxyphenyl)-3-(2-methyl-1,6-naphthyridin-8-yl)thieno[3,2-d]pyrimidine-2,4(1H,3H)-dione] | 26.3 | 24.4 | – | – | –
16 | COc1ccc(Cl)c(-c2cc3[nH]c(=O)n(-c4cncc5ccc(N6CCS(=O)(=O)CC6)nc45)c(=O)c3s2)c1 [Example 458] | 12.1 | – | 188 | – | –
17 | COCCOCCOc1c(C)cncc1-n1c(=O)[nH]c2cc(-c3ccccc3Cl)sc2c1=O [Example 215] | – | – | 94.1 | – | 10.7
18 | COc1ccc(Cl)c(-c2cc3[nH]c(=O)n(-c4cncc5ccc(N6CCNC(=O)C6)cc45)c(=O)c3s2)c1 [Example 416] | 4.63 | – | 187 | – | –
19 | COc1cc(-c2cc3[nH]c(=O)n(-c4cncc5scc(C)c45)c(=O)c3s2)c(Cl)cc1F (single isomer, unassigned) [Example 1056, 6-(2-chloro-4-fluoro-5-methoxyphenyl)-3-(3-methylthieno[2,3-c]pyridin-4-yl)thieno[3,2-d]pyrimidine-2,4(1H,3H)-dione] | 2.34 | < 1.01 | – | – | –
20 | Cc1cncc(-n2c(=O)c3sc(-c4ccccc4Cl)cc3n(CCC#N)c2=O)c1 [Example 984] | 3.12 | – | – | 3.69 | –
21 | CN1C(=O)COc2cc(-c3cccc(Cl)c3-c3ccc4c(=O)n(-c5cncc6ccccc56)c(=O)[nH]c4c3)cnc21 [Example 195] | – | – | 9.06 | – | 8.82
22 | COc1cc(-c2cc3c(s2)c(=O)n(-c2cncc(Cl)c2C)c(=O)n3CCC#N)c(Cl)cc1F (single isomer, unassigned) [Example 1032, 3-[6-(2-chloro-4-fluoro-5-methoxy-phenyl)-3-(5-chloro-4-methyl-3-pyridyl)-2,4-dioxo-thieno[3,2-d]pyrimidin-1-yl]propanenitrile] | 1.99 | 2.02 | – | – | –
23 | COc1cc(-c2cc3c(s2)c(=O)n(-c2cncc4ccccc24)c(=O)n3CCC#N)c(Cl)cc1F [Example 632, 3-(6-(2-chloro-4-fluoro-5-methoxyphenyl)-3-(isoquinolin-4-yl)-2,4-dioxo-3,4-dihydrothieno[3,2-d]pyrimidin-1(2H)-yl)propanenitrile] | 6.13 | – | – | 3.11 | –
24 | CS(=O)(=O)N1CC2(CN(c3ccc4cncc(-n5c(=O)[nH]c6cc(-c7ccccc7Cl)sc6c5=O)c4c3)C2)C1 [Example 424] | 11.3 | – | 55.8 | – | –
25 | Cc1nn(C)cc1-c1cccc(Cl)c1-c1ccc2c(=O)n(-c3cncc4ccccc34)c(=O)[nH]c2c1 [Example 148] | – | – | 14.1 | – | 10.4
26 | Cn1cnc(COc2ccc(Cl)c(-c3ccc4c(=O)n(-c5cncc6ccccc56)c(=O)[nH]c4c3)c2)n1 [Example 90] | – | – | 886 | – | 487
27 | COc1cc(-c2cc3c(s2)c(=O)n(-c2cncc4cccnc24)c(=O)n3C)c(Cl)cc1F [Example 994] | 8.46 | – | 8.41 | – | –
28 | COc1cc(-c2cc3[nH]c(=O)n(-c4cncc5cccnc45)c(=O)c3s2)c(Cl)cc1F (single isomer, unassigned) [Example 1008, 6-(2-chloro-4-fluoro-5-methoxy-phenyl)-3-(1,6-naphthyridin-8-yl)-1H-thieno[3,2-d]pyrimidine-2,4-dione] | 128 | 138 | – | – | –
29 | COc1ccc(Cl)c(-c2ccc3c(=O)n(-c4cncc5ccc(F)cc45)c(=O)[nH]c3c2)c1 [Example 371] | – | – | – | 108 | 55.9
